Results on five molecules are retold here after publication PMC11336141.

The test system of one data set is perfused rat pancreas. Nature of the data set: Rat pancreas perfusion, glucagon output. Also noted: species or system rat (Wistar). Conditions: bolus 10 mM L-arginine at end of experiment. As to the method: Non-fasted rats were anesthetized by a subcutaneous injection of a balanced mix of hypnorm and midazolam (0.3 mL/100 g body weight). Rats were placed on a heated operating table (37 °C) and the abdomen were opened. Blood vessels were tied off before removing the large and small intestines, the stomach, and the spleen. Then, the kidneys were ligated. […] The perfusion buffer was a modified Krebs-Ringer bicarbonate buffer with 5% (w/v) dextran T-70 (Pharmacosmos, Holbaek, Denmark), 0.1% (w/v) BSA (fraction V), 3.5 mM glucose and 3 mM vamin (Fresenius Kabi, Copenhagen, Denmark), pH adjusted to 7.4. […] Once perfusion of the pancreas was established, a catheter was inserted in the vena portae to collect the venous effluent and the rat was sacrificed by perforation of the diaphragm. After a 30-minute equilibration period, samples were collected every minute for the duration of the protocol. […] 10 mM L-Arginine was used as a positive control. Collected samples were immediately transferred on ice and stored at −20 °C until hormone analysis. Glucagon, insulin, and somatostatin concentrations in venous effluents were quantified by use of validated in-house radioimmunoassays (RIA) as previously described[36] (see below). Statistical analysis were performed where appropriate using one-way analysis of variance (ANOVA) with Dunnett’s post-test. Statistical significance was taken as p < 0.05.
Glucagon concentration in perfusion samples were measured by a validated in-house RIAs using the 4305 antibody, which reacts with the C-terminal epitope of glucagon[36] and no other cleavage products of pro-glucagon. Insulin concentrations were measured with the 2006 antibody, which measures all isoforms of rat insulin. […] Assay sensitivity was <1 pmol/L ( < 5 pmol/L for insulin detection), allowing reliable measurements of increments of at least 25 fmol/min.
Data analysis were performed in GraphPad Prism (v.9.4.1). Statistical analysis were performed using two-way repeated measure analysis of variance (ANOVA) with Šidák test for isolated islets glucagon secretion and one-way repeated measure ANOVA with Dunnett's test for rat pancreas perfusion experiments. Statistical significance was taken as p < 0.05.

The target of another data set is T1, human SSTR2 (GoB) (Homo sapiens, UniProt P30874).
T1 construct: host or cells: HEK293T cells
Put plainly: G protein activation (BRET dissociation) assay, GoB at hSSTR2.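 Note: percent of the maximal response to the reference somatostatin agonist.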 The format is cell-based.

Another data set concerns the target T2, human SSTR2 (Gi2) (Homo sapiens, UniProt P30874).
T2 construct: host or cells: HEK293T cells
Put plainly: G protein activation (BRET dissociation) assay, Gi2 at hSSTR2.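 Note: percent of the maximal response to the reference somatostatin agonist.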 In kind it is cell-based.

Another data set has as its target T3, human SSTR2 (Gi3) (Homo sapiens, UniProt P30874).
T3 construct: host or cells: HEK293T cells
Nature of the data set: G protein activation (BRET dissociation) assay, Gi3 at hSSTR2.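 Note: percent of the maximal response to the reference somatostatin agonist.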 The format is cell-based. Background: In BRET a luciferase serves as donor, and the signal depends on an acceptor being close.

For a further data set, the target named is human SSTR2 (Homo sapiens, UniProt P30874). Nature of the data set: PRESTO-Tango β-arrestin recruitment assay, hSSTR2. Conditions: read-out: Emax ± S.E.M., Table S1; % of maximal response relative to SS-14. In general terms: Arrestin recruitment assays detect the binding of arrestin to an activated receptor.
The target in another data set is T4, human SSTR3 (Homo sapiens, UniProt P32745).
T4 construct: Tango cassette (PRESTO-Tango template of Kroeze et al. 2015); Bryan Roth (Addgene) Addgene kit # 1000000068; host or cells: HTLA cells
Put plainly: PRESTO-Tango β-arrestin recruitment assay, hSSTR3. In kind it is cell-based. From the text:
HTLA cells were given by Prof.
The assay was done as described in ref. [12].

The next data set has as its target T5, human SSTR2 (Gi1) (Homo sapiens, UniProt P30874).
T5 construct: host or cells: HEK293T cells
Put plainly: G protein activation (BRET dissociation) assay, Gi1 at hSSTR2.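 Note: percent of the maximal response to the reference somatostatin agonist.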 The format is cell-based.

The target in the next data set is human SSTR2 (GoA) (Homo sapiens, UniProt P30874). Put plainly: G protein activation (BRET dissociation) assay, GoA at hSSTR2.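 Note: percent of the maximal response to the reference somatostatin agonist.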 The conditions noted are these: read-out: Emax ± S.E.M.
In data set [1] the test system is mock (pcDNA) transfected HEK293T cells. Nature of the data set: GoA dissociation in mock (pcDNA) transfected HEK293T cells. The format is cell-based. The conditions noted are these: Fig. S6B.
Description: The following protocol was adopted from Masuho et al., 2015[33]. HEK293T cells were seeded onto 6-well plates at a density of 750,000 cells/well. […] 16 to 24 hours post-transfection, HEK293T cells were seeded onto white 96 well plate (PerkinElmer) coated with poly-L-lysine (PLL) at a density of 40,000 cells/well and were allowed to grow overnight. On the day of assay, cells were washed once with phosphate-based saline (PBS) and 80 µL of assay buffer which composed of PBS with 0.5 mM MgCl2 and 0.1% glucose, pH 7.4, were added onto each well. 10 µL of Nluc luciferase substrate furimazine (Promega) were added onto each well and incubated for 3 minutes.
Crude C. geographus venom was subjected to reversed-phase high performance liquid chromatography (RP-HPLC). Pools consisting of 5 adjacent fractions were then tested for their ability to induce GoA dissociation at the hSSTR2. […] Error bars represent means ± S.E.M. of only one technical experiment in duplicate.
Error bars represent means ± S.E.M. of only one technical experiment in duplicate.
Data set [2] addresses zebrafish sstr2b, Tango construct (zebrafish (Danio rerio)).
The target in data set [3] is zebrafish sstr2a, Tango construct (zebrafish (Danio rerio)) (UniProt E7FDL0).
For another data set, the system named is plasma glucose. Conditions: compared with GLP-1; cited from earlier work. From the text:
Another example of a doppelganger peptide with drug-like properties that targets glucose homeostasis is exendin-4, a glucagon-like peptide-1 (GLP-1) peptide derived from the salivary gland of the Gila monster, Heloderma suspectum. […] Following successful clinical trials, exendin-4 (exenatide) entered the market in 2005 as a first-in-class incretin-mimetic for the treatment of type 2 diabetes (T2D). Since then, several other GLP-1 analogs have been devel ...

Ends that are not written are not given here.

T5 sequence (P30874 whole entry): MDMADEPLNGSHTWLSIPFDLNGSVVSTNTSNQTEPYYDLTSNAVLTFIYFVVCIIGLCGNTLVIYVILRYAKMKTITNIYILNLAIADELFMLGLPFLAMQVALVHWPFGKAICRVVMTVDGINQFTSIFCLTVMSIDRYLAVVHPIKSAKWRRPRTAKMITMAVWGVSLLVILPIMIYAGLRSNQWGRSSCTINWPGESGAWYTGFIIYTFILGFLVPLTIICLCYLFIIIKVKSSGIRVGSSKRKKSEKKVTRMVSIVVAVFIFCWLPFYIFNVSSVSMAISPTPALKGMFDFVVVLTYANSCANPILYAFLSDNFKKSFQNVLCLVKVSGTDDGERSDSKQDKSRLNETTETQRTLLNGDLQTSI
T3 sequence (P30874 whole entry): as above
T2 sequence (P30874 whole entry): as above
Chain of human SSTR2 (GoA) (P30874 whole entry): as above
Chain of human SSTR2 (P30874 whole entry): as above
T1 sequence (P30874 whole entry): as above
T4 sequence (P32745 whole entry): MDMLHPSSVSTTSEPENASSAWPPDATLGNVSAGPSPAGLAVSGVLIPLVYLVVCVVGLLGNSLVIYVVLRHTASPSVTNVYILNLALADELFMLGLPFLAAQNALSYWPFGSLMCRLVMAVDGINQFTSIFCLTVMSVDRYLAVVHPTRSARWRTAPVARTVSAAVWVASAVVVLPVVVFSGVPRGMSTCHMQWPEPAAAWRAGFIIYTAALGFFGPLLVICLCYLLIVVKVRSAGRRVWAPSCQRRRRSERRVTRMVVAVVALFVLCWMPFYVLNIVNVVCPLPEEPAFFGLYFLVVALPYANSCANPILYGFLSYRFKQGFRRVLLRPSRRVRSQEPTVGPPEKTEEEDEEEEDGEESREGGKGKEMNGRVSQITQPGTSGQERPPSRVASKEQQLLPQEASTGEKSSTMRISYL
Description for human SSTR2 (Gi1): (§1) HEK293T cells were seeded onto 6-well plates at a density of 750,000 cells/well. […] 16 to 24 hours post-transfection, HEK293T cells were seeded onto white 96 well plate (PerkinElmer) coated with poly-L-lysine (PLL) at a density of 40,000 cells/well and were allowed to grow overnight. On the day of assay, cells were washed once with phosphate-based saline (PBS) and 80 µL of assay buffer which composed of PBS with 0.5 mM MgCl2 and 0.1% glucose, pH 7.4, were added onto each well. 10 µL of Nluc luciferase substrate furimazine (Promega) were added onto each well and incubated for 3 minutes.
(§2) The net BRET ratio was determined by subtracting the BRET ratio of drugs with the BRET ratio of vehicle control. Net BRET ratio over time was then plotted using GraphPad Prism (v.9.4.1), and the area-under-curve of net BRET ratio over time course for each ligand concentration tested were then determined and plotted against log(concentration) of drugs tested. […] Concentration response curves were fitted with a 4-parameter logistic Eq. (1) using GraphPad Prism (v.9.4.1):1 Y=Emin+(Emax−Emin)/1+10^logEC50−X×Hillslope
Description for human SSTR2 (Gi2): as §1, §2
Description for human SSTR2 (Gi3): as §1, §2
Description for human SSTR2 (GoA): as §1, §2
Description for human SSTR2 (GoB): as §1, §2

Turning to `N=C(N)NCCC[C@H](N)C(=O)O` [L-arginine, reference compound], in the data set with perfused rat pancreas, the “effect on glucagon levels (positive control)” value is reported as “revert glucagon levels”.
Turning to `C[C@@H](O)[C@@H]1NC(=O)[C@H](CCCCN)NC(=O)[C@@H](Cc2c[nH]c3ccccc23)NC(=O)[C@H](Cc2ccccc2)NC(=O)[C@@H](NC(=O)[C@H](N)Cc2ccccc2)CSSC[C@@H](C(=O)N[C@H](CO)[C@@H](C)O)NC1=O` [Octreotide, octreotide, reference compound], the maximal effect (Emax) (usually the greatest response seen or fitted, relative to the assay's reference) on human SSTR2 (GoB) was 101 ± 2.64%; at human SSTR2 (Gi2), 64 ± 2.97%; on human SSTR2 (Gi3), 77.5 ± 3.67%; at human SSTR2, 94 ± 1.4%; at human SSTR3, 108 ± 13.4%; at human SSTR2 (Gi1) it was 84.2 ± 4.44%. Further, the Emax at human SSTR2 (GoA) turned out to be 96.2 ± 4.77%.
With “SST-14 (AGCKNFFWKTFTSC; not fully specified (bridges); ends and bridges not checked; UniProt P61278 103-116, looked up)”, the “pcDNA/GoA response, Mean” value in [1] (at pEC20, data row 1) was found to be 0.005611; in [1] (at pEC20, data row 2) it was 0.02323; in data set [1] (at pEC20, data row 3), 0.002971; in data set [1] (at pEC50, data row 1), 0; in [1] (at pEC50, data row 2), 0.0008161; in data set [1] (at pEC50, data row 3), 0.
On to “Somatostatin-14 (from UniProt P61278 103-116) (peptide)”, for which the results for the EC50, PRESTO-Tango β-arrestin recruitment assay in data set [2] and in data set [3] were 0.132 µM and 0.0286 µM, respectively.
On to exendin-4, for which, in the data set on plasma glucose, the “in vivo half-life in words” value is listed as “significantly longer in vivo half-life than GLP-1” and the “potency in lowering plasma glucose in words” value is reported as “much greater potency in lowering plasma glucose”.
